Experiments:
DU-145 (prostate cancer) = assay: MTS cytotoxicity assay, 72 h, DU-145; format: cell-based, human; settings: Homo sapiens, DU-145, 72 h, full Table S1
Protocol: (§1) Based on the preliminary results and tests of a larger library of known triterpenoids, a small set of 2-substituted lupane and 18α-oleanane derivatives was designed and synthesized. As the first step, the cytotoxic activity of the synthesized derivatives was assessed using an MTS assay following 72 h of treatment (Table 1). Selected cell lines A549 (lung adenocarcinoma) and DU-145 (prostate cancer) are both dependent on Hh signaling. In addition, K562 (chronic myelogenous leukemia) was included as a cell line sensitive to Hh inhibitors[32] and a type of hematological malignancy with active Hh signaling.[33] MRC-5 lung fibroblasts and BJ human skin fibroblasts cell lines were used to evaluate the toxicity against nontumor cells. Compounds were also tested using the standard panel of other cancer cell lines, as described in our earlier work (Table 1).[27]
(§2) The human prostate tumor-derived cell line DU145 was obtained from ATCC (American Type Culture Collection) and cultured in RPMI 1640 (Roswell Park Memorial Institute) medium supplemented with 10% (v/v) fetal bovine serum (FBS). Human prostate tumor-derived LNCaP cells were obtained from ATCC and cultured in RPMI 1640 medium supplemented with 10% FBS. The human nonsmall cell lung carcinoma (NSCLC)-derived cell line HOP-62 was obtained from the DSMZ (German Collection of Microorganisms and Cell Cultures) and cultured in RPMI 1640 medium supplemented with 10% FBS. The human nonsmall cell lung carcinoma-derived cell line NCI-H322 was obtained from ECACC (European Collection of Authenticated Cell Cultures) and cultured in RPMI 1640 medium supplemented with 10% FBS. The human nonsmall cell lung carcinoma-derived cell line NCI-H522 was obtained from ATCC and cultured in RPMI 1640 medium supplemented with 10% FBS. The human lung tumor-derived cell line A549 was obtained from ATCC and cultured in Dulbecco’s Modified Eagle’s Medium (DMEM) supplemented with 10% FBS. The human medulloblastoma-derived cell line DAOY was obtained from ATCC and cultured in Eagle’s Minimum Essential Medium (EMEM) supplemented with 10% FBS. The human glioblastoma-derived cell line T98G was obtained from ATCC and cultured in EMEM medium supplemented with 10% FBS, 1 mmol/L sodium pyruvate, and 1 mmol/L nonessential amino acid mixture. All the above-mentioned cell lines were cultured at 37 °C in an atmosphere of 5% CO2 with 95% humidity. The cytotoxicity MTS assays were performed using MTS (3-(4,5-dimethylthiazol-2-yl)-5-(3-carboxymethoxyphenyl)-2-(4-sulfophenyl)-2H-tetrazolium) tetrazolium salt. Briefly, cells were seeded in a 384-well transparent plate in a volume of 25 μL and a concentration of 15,000 cells/mL (DU145, LNCaP, HOP-62, A549, DAOY, T98G) or 30,000 cells/mL (NCI-H322, NCI-H522). The next day, cells were exposed to compounds in a concentration range of 50–0.0975 μmol/L (dilution factor 2) and cultured in the presence of the compounds for 72 h. After 72 h, 5 μL of MTS/phenazine methosulfate solution was pipetted into each well and incubation continued for 1–4 h. Finally, the absorbance at 490 nm was measured using an EnVision multifunctional modular reader (PerkinElmer). The IC50 value was determined using Dotmatics software.

U2OS = assay: MTS cytotoxicity assay, 72 h, U2OS; format: cell-based; settings: Homo sapiens, full Table S1
Protocol: as §1, §2

[1] = test system: K562 (chronic myelogenous leukemia); assay: MTS cytotoxicity assay, 72 h, K562; format: cell-based; settings: Homo sapiens, full Table S1
Protocol: as §1, §2

HCT116 p53–/– = assay: MTS cytotoxicity assay, 72 h, HCT116 p53–/–; format: cell-based; settings: Homo sapiens, HCT-116, 72 h, full Table S1
Protocol: as §1, §2

CCRF-CEM = assay: MTS cytotoxicity assay, 72 h, CCRF-CEM; format: cell-based; settings: full Table S1; for SI (selectivity index): CCRF-CEM vs average of BJ and MRC-5; for IC50: Homo sapiens, CCRF-CEM, 72 h, MTS
Protocol: as §1, §2

MRC-5 lung fibroblasts = assay: MTS cytotoxicity assay, 72 h, MRC-5 fibroblasts; format: cell-based, human; settings: Homo sapiens, MRC5, 72 h, normal fibroblasts, full Table S1
Protocol: as §1, §2

[2] = test system: A549 (lung adenocarcinoma); assay: MTS cytotoxicity assay, 72 h, A549; format: cell-based; settings: Homo sapiens, A549, 72 h, full Table S1
Protocol: as §1, §2

[3] = test system: BJ human skin fibroblasts; assay: MTS cytotoxicity assay, 72 h, BJ fibroblasts; format: cell-based; settings: Homo sapiens, Skin fibroblast, normal fibroblasts, full Table S1
Protocol: as §1, §2

K562-TAX = assay: MTS cytotoxicity assay, 72 h, K562-TAX; format: cell-based; settings: full Table S1
Protocol: as §1, §2

HCT 116 = assay: MTS cytotoxicity assay, 72 h, HCT 116; format: cell-based; settings: Homo sapiens, HCT-116, 72 h, full Table S1
Protocol: as §1, §2

CEM-DNR = assay: MTS cytotoxicity assay, 72 h, CEM-DNR; format: cell-based; settings: Homo sapiens, full Table S1
Protocol: as §1, with “1).[27] […]” for “1).[27]”

Q: What does the source list for `CC1(C)C(=O)C(c2ccsc2)=C[C@@]2(C)C1CC[C@]1(C)C2CCC2C3[C@H]4OC[C@@]3(CCC4(C)C)CC[C@]21C` (stereo partly drawn) [Compound 4d, 2-(Thiophene-3-yl)-19β,28-epoxyolean-1-en-3-one]?
A: IC50 (DU-145 (prostate cancer)): > 50 µM; IC50 (U2OS): > 50 µM; IC50 [1]: > 50 µM; IC50 (HCT116 p53–/–): > 50 µM; SI (selectivity index) (CCRF-CEM): > 1.0; IC50 (CCRF-CEM): > 50 µM; IC50 (MRC-5 lung fibroblasts): > 50 µM; IC50 [2]: > 50 µM; IC50 [3]: > 50 µM; IC50 (K562-TAX): > 50 µM; IC50 (HCT 116): > 50 µM; IC50 (CEM-DNR): > 50 µM

Q: Which IC50 (DU-145 (prostate cancer)) does the source give for `C=C(C)[C@@H]1CC[C@]2(C(=O)OCc3ccccc3)CC[C@]3(C)C(CCC4[C@@]5(C)C=C(c6ccco6)C(=O)C(C)(C)C5CC[C@]43C)C12` (stereo partly drawn) [Compound 10a, Benzyl 2-(2-Furanyl)-3-oxolupa-1,20(29)-dien-28-oate] here?
A: Its IC50 is greater than 50 µM.

Q: And the IC50 (U2OS)?
A: The IC50 was greater than 50 µM.

Q: And the IC50 [1]?
A: The IC50 was greater than 50 µM.

Q: And the IC50 (HCT116 p53–/–)?
A: Its IC50 is greater than 50 µM.

Q: And the “SI (selectivity index)” value (CCRF-CEM)?
A: The value was greater than 1.0.

Q: What about the IC50 (CCRF-CEM) of the same compound?
A: The IC50 was greater than 50 µM.

Q: What about the IC50 (MRC-5 lung fibroblasts) of the same compound?
A: The IC50 was greater than 50 µM.

Q: What about the IC50 [2] of the same compound?
A: The IC50 was greater than 50 µM.

Q: And the IC50 [3]?
A: The IC50 was greater than 50 µM.

Q: And the IC50 (K562-TAX)?
A: Its IC50 is greater than 50 µM.

Q: What about the IC50 (HCT 116) of the same compound?
A: Its IC50 is greater than 50 µM.

Q: And the IC50 (CEM-DNR)?
A: Its IC50 is greater than 50 µM.

Q: How did the IC50 (DU-145 (prostate cancer)) turn out when `C=C(C)[C@@H]1CC[C@]2(C(=O)OCc3ccccc3)CC[C@]3(C)C(CCC4[C@@]5(C)C=C(c6ccc(Cl)s6)C(=O)C(C)(C)C5CC[C@]43C)C12` (stereo partly drawn) [Compound 10e] was run?
A: The IC50 was greater than 50 µM.

Q: And the IC50 (U2OS)?
A: The IC50 was greater than 50 µM.

Q: And the IC50 [1]?
A: The IC50 was greater than 50 µM.

Q: And the IC50 (HCT116 p53–/–)?
A: Its IC50 is greater than 50 µM.

Q: What about the “SI (selectivity index)” value (CCRF-CEM) of the same compound?
A: The value was greater than 1.0.

Q: And the IC50 (CCRF-CEM)?
A: The IC50 was greater than 50 µM.

Q: And the IC50 (MRC-5 lung fibroblasts)?
A: Its IC50 is greater than 50 µM.

Q: What about the IC50 [2] of the same compound?
A: Its IC50 is greater than 50 µM.

Q: And the IC50 [3]?
A: The IC50 was greater than 50 µM.

Q: And the IC50 (K562-TAX)?
A: Its IC50 is greater than 50 µM.

Q: And the IC50 (HCT 116)?
A: The IC50 was greater than 50 µM.

Q: And the IC50 (CEM-DNR)?
A: Its IC50 is greater than 50 µM.

Q: Which results are given for `C=C(C)[C@@H]1CC[C@]2(C(=O)OCc3ccccc3)CC[C@]3(C)C(CCC4[C@@]5(C)C=C(c6ccoc6)C(=O)C(C)(C)C5CC[C@]43C)C12` (stereo partly drawn) [Compound 10b, Benzyl 2-(3-Furanyl)-3-oxolupa-1,20(29)-dien-28-oate]?
A: IC50 (DU-145 (prostate cancer)): > 50 µM; IC50 (U2OS): > 50 µM; IC50 [1]: > 50 µM; IC50 (HCT116 p53–/–): > 50 µM; SI (selectivity index) (CCRF-CEM): > 1.0; IC50 (CCRF-CEM): > 50 µM; IC50 (MRC-5 lung fibroblasts): > 50 µM; IC50 [2]: > 50 µM; IC50 [3]: > 50 µM; IC50 (K562-TAX): > 50 µM; IC50 (HCT 116): > 50 µM; IC50 (CEM-DNR): > 50 µM

Q: What does the source list for `CC1(C)C(=O)C(c2ccc3c(c2)OCCO3)=C[C@@]2(C)C1CC[C@]1(C)C2CCC2C3[C@H]4OC[C@@]3(CCC4(C)C)CC[C@]21C` (stereo partly drawn) [Compound 4j, 2-(1,4-Benzodioxan-6-yl)-19β,28-epoxyolean-1-en-3-one]?
A: IC50 (DU-145 (prostate cancer)): > 50 µM; IC50 (U2OS): > 50 µM; IC50 [1]: > 50 µM; IC50 (HCT116 p53–/–): > 50 µM; SI (selectivity index) (CCRF-CEM): > 1.0; IC50 (CCRF-CEM): > 50 µM; IC50 (MRC-5 lung fibroblasts): > 50 µM; IC50 [2]: > 50 µM; IC50 [3]: > 50 µM; IC50 (K562-TAX): > 50 µM; IC50 (HCT 116): > 50 µM; IC50 (CEM-DNR): > 50 µM

Q: Which IC50 (DU-145 (prostate cancer)) does the source give for `C=C(C)[C@@H]1CC[C@]2(C(=O)OCc3ccccc3)CC[C@]3(C)C(CCC4[C@@]5(C)C=C(c6cncc7ccccc67)C(=O)C(C)(C)C5CC[C@]43C)C12` (stereo partly drawn) [Compound 10l, Benzyl 2-(4-Isoquinoline)-3-oxolupa-1,20(29)-dien-28-oate] here?
A: Its IC50 is greater than 50 µM.

Q: And the IC50 (U2OS)?
A: Its IC50 is greater than 50 µM.

Q: And the IC50 [1]?
A: Its IC50 is greater than 50 µM.

Q: And the IC50 (HCT116 p53–/–)?
A: The IC50 was greater than 50 µM.

Q: What about the “SI (selectivity index)” value (CCRF-CEM) of the same compound?
A: The value was greater than 1.0.

Q: And the IC50 (CCRF-CEM)?
A: The IC50 was greater than 50 µM.

Q: And the IC50 (MRC-5 lung fibroblasts)?
A: The IC50 was greater than 50 µM.

Q: And the IC50 [2]?
A: Its IC50 is greater than 50 µM.

Q: And the IC50 [3]?
A: The IC50 was greater than 50 µM.

Q: And the IC50 (K562-TAX)?
A: Its IC50 is greater than 50 µM.

Q: And the IC50 (HCT 116)?
A: The IC50 was greater than 50 µM.

Q: What about the IC50 (CEM-DNR) of the same compound?
A: Its IC50 is greater than 50 µM.
